Test results as given in ChEMBL document CHEMBL5584315, “Evaluation of Phenazine Derivatives from the Lichen-Associated Streptomyces flavidovirens as Potent Antineuroinflammatory Agents In Vitro and In Vivo” (J Nat Prod, 2024).
The source made the active and inactive calls. The calls are words filed in the database; no cut-off is given here.

Key:
[1] = Cytotoxicity against mouse BV-2 cells assessed as cell viability at 40 uM measured after 24 hrs by MTT assay relative to control; format: toxicity, cell-based; conditions: read-out: Activity
[2] = system: BV-2; assay: Antineuroinflammatory activity in LPS induced mouse BV-2 cells assessed as inhibition of NO production pretreated for 3 hrs followed by LPS addition and measured after 21 hrs by griess reagent based assay; format: functional, cell-based
[3] = system: BV-2; assay: Cytotoxicity against mouse BV-2 cells assessed as cell viability at 40 uM measured after 24 hrs by MTT assay; format: toxicity, cell-based; conditions: bv-2, 24 h
[4] = species: Danio rerio; assay: Inhibition of LPS-induced ROS stress in Zebrafish embryo model assessed as reduction in ROS expression by measuring green fluorescence intensity at 30 uM pretreated for 2 hrs followed by LPS stimulation and measured after 12 hrs by H2DCF-DA staining based fluorescence microscopy analysis; format: functional, organism-based; conditions: time 14.0 hrs

Row | IC50 [2] [µM] | Compound | viability at 24 h, 40 µM [1] [%] | Activity [3] | inhibition [4]
1 | > 20 | CC(C)C[C@@H]1NC(=O)[C@H](Cc2c[nH]c3ccccc23)NC1=O | > 98 |  | 
2 | > 20 | CC(=O)OC[C@H]1O[C@@H](n2cnc3c(N)ncnc32)[C@H](O)[C@@H]1O | > 98 |  | 
3 | > 20 | O=C1CCCN1Cc1ccco1 | > 98 |  | 
4 | 8.4 | COC(=O)C[C@@H](O)c1cccc2nc3c(C(=O)OC)cccc3nc12 | > 98 |  | 
5 | > 20 | O=C1CCCCN1Cc1ccco1 | > 98 |  | 
6 | 8.3 | COC(=O)c1cccc2nc3c([C@H](O)[C@@H](C)C(=O)OC)cccc3nc12 | > 98 |  | 

Continued, molecule first:

Row | Compound | IC50 [2] [µM] | viability at 24 h, 40 µM [1] [%] | Activity [3] | inhibition [4]
7 | O=c1c(O)c(-c2ccc(O)c(O)c2)oc2cc(O)cc(O)c12 [QUERCETIN] | 9.8 |  |  | 
8 | CSC(=N)N | 7.5 |  |  | 
9 | O=C(O)c1cccc2nc3ccccc3nc12 [PHENAZINE-1-CARBOXYLIC ACID] | 8.4 | > 98 |  | 
10 | COC(=O)c1cc2c([nH]c3ccccc32)c(-c2ccc(CO)o2)n1 |  |  | Toxic | 
11 | C[C@@H]1C[C@H]2[C@@H]3CCC4=CC(=O)C=C[C@]4(C)[C@@]3(F)[C@@H](O)C[C@]2(C)[C@@]1(O)C(=O)CO |  |  |  | inactive
